For five compounds, T/C results are on record in PubChem BioAssay AID272 (DTP/NCI, 2004).

For the experiment, the system named is Lewis lung carcinoma i.m., BDF1 mice, T/C %. Nature of the experiment: NCI In Vivo Anticancer Drug Screen. Data for tumor model Lewis Lung Carcinoma (intramuscular) in B6D2F1 (BDF1) mice. A digest of the protocol: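 Mice carrying transplantable tumours received test compound. Survival or tumour size was recorded and expressed as the treated-group value (T) divided by the vehicle-treated control-group value (C).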

Molecules are shown by their SMILES. “And” between values parts separate entries of the source, which are not always exact repeats. Equal values may be shown once. Inconclusive results are not listed.

With `O=NN(CCCl)C(=O)NCCCl`, the T/C reads like this: (endpoint: mean tumor weight, dose: 1.5 mg/kg/injection, schedule: Q01DX011 (ip), vehicle: other, higher = larger tumour) 57 % of control; (endpoint: mean tumor weight, dose: 3.0 mg/kg/injection, schedule: Q01DX011 (ip), vehicle: other, higher = larger tumour) 47 % of control; (endpoint: mean tumor weight, dose: 6.0 mg/kg/injection, schedule: Q01DX011 (ip), vehicle: other, higher = larger tumour) 12 % of control; (endpoint: mean tumor weight, dose: 14.0 mg/kg/injection, schedule: Q01DX001 (sc), vehicle: saline, higher = larger tumour) 76 % of control; (endpoint: mean tumor weight, dose: 23.0 mg/kg/injection, schedule: Q01DX001 (sc), vehicle: saline, higher = larger tumour) 65 % of control; (endpoint: mean tumor weight, dose: 39.0 mg/kg/injection, schedule: Q01DX001 (sc), vehicle: saline, higher = larger tumour) 35 % of control. Also, the T/C reads like this: (endpoint: mean tumor weight, dose: 65.0 mg/kg/injection, schedule: Q01DX001 (sc), vehicle: saline, higher = larger tumour) 22 % of control; (endpoint: median survival time, dose: 1.0 mg/kg/injection, schedule: Q01DX009 (ip), vehicle: saline + alcohol, higher = longer survival) 113 % of control; (endpoint: median survival time, dose: 1.25 mg/kg/injection, schedule: Q01DX015 (ip), vehicle: saline, higher = longer survival) 108 % of control; (endpoint: median survival time, dose: 1.5 mg/kg/injection, schedule: Q01DX011 (ip), vehicle: other, higher = longer survival) 102 % of control; (endpoint: median survival time, dose: 1.5 mg/kg/injection, schedule: Q01DX011 (ip), vehicle: saline, higher = longer survival) 110 % of control; (endpoint: median survival time, dose: 2.0 mg/kg/injection, schedule: Q01DX011 (ip), vehicle: saline, higher = longer survival) 97 % of control. The T/C is 124 % of control (endpoint: median survival time, dose: 2.5 mg/kg/injection, schedule: Q01DX015 (ip), vehicle: saline, higher = longer survival); 104 % of control (endpoint: median survival time, dose: 3.0 mg/kg/injection, schedule: Q01DX011 (ip), vehicle: other, higher = longer survival); 113 % of control (endpoint: median survival time, dose: 4.0 mg/kg/injection, schedule: Q01DX009 (ip), vehicle: saline + alcohol, higher = longer survival); 115 % of control (endpoint: median survival time, dose: 4.0 mg/kg/injection, schedule: Q01DX011 (ip), vehicle: saline, higher = longer survival); 107 % of control (endpoint: median survival time, dose: 5.0 mg/kg/injection, schedule: Q01DX001 (ip), vehicle: saline + alcohol, higher = longer survival); 111 % of control (endpoint: median survival time, dose: 5.0 mg/kg/injection, schedule: Q01DX015 (ip), vehicle: saline, higher = longer survival). In addition, the T/C by setting is: (endpoint: median survival time, dose: 5.0 mg/kg/injection, schedule: Q07DX003 (ip), vehicle: saline, higher = longer survival) 95 % of control; (endpoint: median survival time, dose: 5.0 mg/kg/injection, schedule: Q16DX002 (ip), vehicle: saline, higher = longer survival) 167 % of control; (endpoint: median survival time, dose: 5.0 mg/kg/injection, schedule: Q## X002 (ip), vehicle: saline, higher = longer survival) 168 % of control; (endpoint: median survival time, dose: 6.0 mg/kg/injection, schedule: Q01DX011 (ip), vehicle: saline, higher = longer survival) 157 % of control; (endpoint: median survival time, dose: 8.0 mg/kg/injection, schedule: Q01DX011 (ip), vehicle: saline, higher = longer survival) 102 % of control and 110 % of control; (endpoint: median survival time, dose: 8.4 mg/kg/injection, schedule: Q01DX001 (ip), vehicle: saline, higher = longer survival) 158 % of control and 160 % of control. The T/C by setting is: (endpoint: median survival time, dose: 8.4 mg/kg/injection, schedule: Q06DX002 (ip), vehicle: saline, higher = longer survival) 105 % of control; (endpoint: median survival time, dose: 8.4 mg/kg/injection, schedule: Q16DX002 (ip), vehicle: saline, higher = longer survival) 89 % of control; (endpoint: median survival time, dose: 8.4 mg/kg/injection, schedule: Q## X002 (ip), vehicle: saline, higher = longer survival) 87 % of control; (endpoint: median survival time, dose: 10.0 mg/kg/injection, schedule: Q01DX001 (ip), vehicle: saline + alcohol, higher = longer survival) 111 % of control; (endpoint: median survival time, dose: 10.0 mg/kg/injection, schedule: Q07DX003 (ip), vehicle: saline, higher = longer survival) 94 % of control; (endpoint: median survival time, dose: 14.0 mg/kg/injection, schedule: Q01DX001 (ip), vehicle: saline, higher = longer survival) 156 % of control and 157 % of control. Also, the T/C by setting is: (endpoint: median survival time, dose: 14.0 mg/kg/injection, schedule: Q01DX001 (sc), vehicle: saline, higher = longer survival) 112 % of control; (endpoint: median survival time, dose: 14.0 mg/kg/injection, schedule: Q06DX002 (ip), vehicle: saline, higher = longer survival) 102 % of control; (endpoint: median survival time, dose: 14.0 mg/kg/injection, schedule: Q07DX003 (ip), vehicle: saline, higher = longer survival) 102 % of control; (endpoint: median survival time, dose: 16.0 mg/kg/injection, schedule: Q01DX011 (ip), vehicle: saline, higher = longer survival) 91 % of control; (endpoint: median survival time, dose: 20.0 mg/kg/injection, schedule: Q01DX001 (ip), vehicle: saline + alcohol, higher = longer survival) 123 % of control; (endpoint: median survival time, dose: 20.0 mg/kg/injection, schedule: Q07DX003 (ip), vehicle: saline, higher = longer survival) 111 % of control. The T/C was 208 % of control and 210 % of control (endpoint: median survival time, dose: 23.0 mg/kg/injection, schedule: Q01DX001 (ip), vehicle: saline, higher = longer survival); 109 % of control (endpoint: median survival time, dose: 23.0 mg/kg/injection, schedule: Q06DX002 (ip), vehicle: saline, higher = longer survival); 108 % of control (endpoint: median survival time, dose: 23.0 mg/kg/injection, schedule: Q07DX003 (ip), vehicle: saline, higher = longer survival); 216 % of control and 218 % of control (endpoint: median survival time, dose: 39.0 mg/kg/injection, schedule: Q01DX001 (ip), vehicle: saline, higher = longer survival); 102 % of control (endpoint: median survival time, dose: 39.0 mg/kg/injection, schedule: Q06DX002 (ip), vehicle: saline, higher = longer survival); 61 % of control and 101 % of control (endpoint: median survival time, dose: 39.0 mg/kg/injection, schedule: Q16DX002 (ip), vehicle: saline, higher = longer survival). The T/C is 104 % of control (endpoint: median survival time, dose: 39.0 mg/kg/injection, schedule: Q## X002 (ip), vehicle: saline, higher = longer survival); 64 % of control (endpoint: median survival time, dose: 40.0 mg/kg/injection, schedule: Q01DX001 (ip), vehicle: saline + alcohol, higher = longer survival); 38 % of control (endpoint: median survival time, dose: 65.0 mg/kg/injection, schedule: Q01DX001 (ip), vehicle: saline, higher = longer survival); 45 % of control (endpoint: median survival time, dose: 65.0 mg/kg/injection, schedule: Q06DX002 (ip), vehicle: saline, higher = longer survival); 24 % of control (endpoint: median survival time, dose: 65.0 mg/kg/injection, schedule: Q16DX002 (ip), vehicle: saline, higher = longer survival).

With `CC1=C2C(=CC(C)(C)[C@@H]2O)C(=O)[C@](C)(O)C12CC2`, the T/C is 95 % of control (endpoint: mean tumor weight, dose: 0.1 mg/kg/injection, schedule: Q01DX011 (ip), vehicle: other, higher = larger tumour); 84 % of control (endpoint: mean tumor weight, dose: 0.2 mg/kg/injection, schedule: Q01DX011 (ip), vehicle: other, higher = larger tumour); 21 % of control (endpoint: mean tumor weight, dose: 0.4 mg/kg/injection, schedule: Q01DX011 (ip), vehicle: other, higher = larger tumour).

Turning to `Nc1cc(I)c2cccnc2c1O`, the T/C is 87 % of control (endpoint: mean tumor weight (est.), dose: 6.25 mg/kg/injection, schedule: Q01DX011 (ip), vehicle: saline with Tween-80, higher = larger tumour); 97 % of control (endpoint: mean tumor weight (est.), dose: 12.5 mg/kg/injection, schedule: Q01DX011 (ip), vehicle: saline with Tween-80, higher = larger tumour); 87 % of control (endpoint: mean tumor weight (est.), dose: 25.0 mg/kg/injection, schedule: Q01DX011 (ip), vehicle: saline with Tween-80, higher = larger tumour); 114 % of control (endpoint: median survival time, dose: 6.25 mg/kg/injection, schedule: Q01DX011 (ip), vehicle: saline with Tween-80, higher = longer survival); 108 % of control (endpoint: median survival time, dose: 12.5 mg/kg/injection, schedule: Q01DX011 (ip), vehicle: saline with Tween-80, higher = longer survival); 104 % of control (endpoint: median survival time, dose: 25.0 mg/kg/injection, schedule: Q01DX011 (ip), vehicle: saline with Tween-80, higher = longer survival).

For the compound `O=C(Nc1ccc(S(=O)(=O)O)cc1)c1ccc([N+](=O)[O-])cc1`, the T/C (endpoint: mean tumor weight (est.), dose: 3.5 mg/kg/injection, schedule: Q01DX011 (ip), vehicle: saline, higher = larger tumour) was 87 % of control; the T/C (endpoint: mean tumor weight (est.), dose: 7.0 mg/kg/injection, schedule: Q01DX011 (ip), vehicle: saline, higher = larger tumour) is 120 % of control; the T/C (endpoint: mean tumor weight (est.), dose: 14.0 mg/kg/injection, schedule: Q01DX011 (ip), vehicle: saline, higher = larger tumour) is 94 % of control; the T/C (endpoint: mean tumor weight (est.), dose: 28.0 mg/kg/injection, schedule: Q01DX011 (ip), vehicle: saline, higher = larger tumour) is 82 % of control; the T/C (endpoint: median survival time, dose: 3.5 mg/kg/injection, schedule: Q01DX011 (ip), vehicle: saline, higher = longer survival) was 92 % of control; the T/C (endpoint: median survival time, dose: 7.0 mg/kg/injection, schedule: Q01DX011 (ip), vehicle: saline, higher = longer survival) was 96 % of control. For the same compound, the T/C by setting is: (endpoint: median survival time, dose: 14.0 mg/kg/injection, schedule: Q01DX011 (ip), vehicle: saline, higher = longer survival) 105 % of control; (endpoint: median survival time, dose: 28.0 mg/kg/injection, schedule: Q01DX011 (ip), vehicle: saline, higher = longer survival) 117 % of control.

For `Nc1nncs1`, the T/C was 87 % of control (endpoint: mean tumor weight, dose: 6.25 mg/kg/injection, schedule: Q01DX011 (ip), vehicle: water, higher = larger tumour); 80 % of control (endpoint: mean tumor weight, dose: 12.5 mg/kg/injection, schedule: Q01DX011 (ip), vehicle: water, higher = larger tumour); 74 % of control (endpoint: mean tumor weight, dose: 25.0 mg/kg/injection, schedule: Q01DX011 (ip), vehicle: water, higher = larger tumour); 36 % of control (endpoint: mean tumor weight, dose: 50.0 mg/kg/injection, schedule: Q01DX011 (ip), vehicle: water, higher = larger tumour); 121 % of control (endpoint: median survival time, dose: 6.25 mg/kg/injection, schedule: Q01DX011 (ip), vehicle: water, higher = longer survival); 123 % of control (endpoint: median survival time, dose: 25.0 mg/kg/injection, schedule: Q01DX011 (ip), vehicle: water, higher = longer survival).
